Measured values published in patent publication US20230085307A1, “PYRIDAZINONE COMPOUND AND HERBICIDE” (NISSAN CHEMICAL CORPORATION, priority 2019, published 2023).

tested on: Japanese bulrush; assay: Test Example 1: herbicidal activity, application before weed generation under submerged conditions (Table 16, symbol B); assay type: in vivo, Japanese bulrush (Schoenoplectus juncoides); settings: amount of applied herbicide 320 g/ha
In short: (§1)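 Alluvial soil was flooded to 4 cm depth, weed seeds were sown mixed and 2.5-leaf rice seedlings were transplanted. On sowing day, the compound's emulsion, diluted in water to a set dose, was applied to the water surface. Plants grew at 25–30 °C and were scored 0–5 after three weeks.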

SMILES	Herbicidal effect, B: Japanese bulrush
CCOc1ccc2c(-c3c(O)c(C)nn(C)c3=O)c(-c3ccc(F)cc3OCC)sc2c1 [3-095]	5 (Herbicidal rate of 90% or more (almost completely withered))
COc1ccccc1-c1sc2cc(OC(C)C)ccc2c1-c1c(O)c(C)nn(C)c1=O [3-101]	5 (Herbicidal rate of 90% or more (almost completely withered))

tested on: oval-leafed pondweed; assay: Test Example 1: herbicidal activity, application before weed generation under submerged conditions (Table 16, symbol C); assay type: in vivo, oval-leafed pondweed (Monochoria vaginalis); settings: amount of applied herbicide 320 g/ha
In short: as §1

SMILES	Herbicidal effect, C: oval-leafed pondweed
CCOc1ccc2c(-c3c(O)c(C)nn(C)c3=O)c(-c3ccc(F)cc3OCC)sc2c1 [3-095]	5 (Herbicidal rate of 90% or more (almost completely withered))
COc1ccccc1-c1sc2cc(OC(C)C)ccc2c1-c1c(O)c(C)nn(C)c1=O [3-101]	5 (Herbicidal rate of 90% or more (almost completely withered))

tested on: late watergrass; assay: Test Example 2: herbicidal activity, application during weed generation under submerged conditions (Table 17, symbol A); assay type: in vivo, late watergrass (Echinochloa oryzicola); settings: AAH 320 g/ha; application during weed generation, submerged conditions
In short: (§2)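 Mixed weed seedlings in alluvial soil under a 4 cm water layer, greenhouse-grown at 25–30° C. Compound given as a diluted emulsion into the floodwater at the 1–2 leaf stage; response graded after three weeks.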

SMILES	herbicidal effect rating, A: late watergrass
CCOc1ccc2c(-c3c(O)c(C)nn(C)c3=O)c(-c3ccc(F)cc3OCC)sc2c1 [3-095]	4 (Herbicidal rate of 70% or more and less than 90%)
COc1ccccc1-c1sc2cc(OC(C)C)ccc2c1-c1c(O)c(C)nn(C)c1=O [3-101]	3 (Herbicidal rate of 40% or more and less than 70%)

tested on: Japanese bulrush; assay: Test Example 2: herbicidal activity, application during weed generation under submerged conditions (Table 17, symbol B); assay type: in vivo, Japanese bulrush (Schoenoplectus juncoides); settings: AAH 320 g/ha; application during weed generation, submerged conditions
In short: as §2

SMILES	herbicidal effect rating, B: Japanese bulrush
CCOc1ccc2c(-c3c(O)c(C)nn(C)c3=O)c(-c3ccc(F)cc3OCC)sc2c1 [3-095]	5 (Herbicidal rate of 90% or more (almost completely withered))
COc1ccccc1-c1sc2cc(OC(C)C)ccc2c1-c1c(O)c(C)nn(C)c1=O [3-101]	3 (Herbicidal rate of 40% or more and less than 70%)

tested on: rice flat sedge; assay: Test Example 3: herbicidal effect by foliage application, Wagner pot (Table 18, symbol E); assay type: in vivo, rice flat sedge (Cyperus iria); settings: 320 g/ha
In short: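 Plants were sown in alluvial soil held under 0.1–0.5 cm standing water and grown 14 days in a greenhouse at 25–30 °C. An emulsifiable formulation, water-diluted to the set dose, was then sprayed onto the foliage, and effects were scored three weeks later using previously defined criteria.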

SMILES	herbicidal effect on rice flat sedge (E)
CCOc1ccc2c(-c3c(O)c(C)nn(C)c3=O)c(-c3ccc(F)cc3OCC)sc2c1 [3-095]	5 (Herbicidal rate of 90% or more (almost completely withered))
COc1ccccc1-c1sc2cc(OC(C)C)ccc2c1-c1c(O)c(C)nn(C)c1=O [3-101]	5 (Herbicidal rate of 90% or more (almost completely withered))

tested on: wild oat; assay: Test Example 4: herbicidal effect by soil treatment (Table 19, symbol I); assay type: in vivo, wild oat (Avena fatua); settings: amount of applied herbicide 320 g/ha
In short: (§3)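 Soil-surface application: an emulsion agent diluted with water to the predetermined dose is sprayed uniformly over seeds lying under roughly 1.5 cm of sterilized diluvial soil. Boxes stay in a greenhouse at 25° C. to 30° C. Three weeks later, each species is graded on previously defined criteria.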

SMILES	I: wild oat, herbicidal effect grade
CCOc1ccc2c(-c3c(O)c(C)nn(C)c3=O)c(-c3ccc(F)cc3OCC)sc2c1 [3-095]	3 (Herbicidal rate of 40% or more and less than 70%)
COc1ccccc1-c1sc2cc(OC(C)C)ccc2c1-c1c(O)c(C)nn(C)c1=O [3-101]	1 (Herbicidal rate of 5% or more and less than 20%)

tested on: Italian ryegrass; assay: Test Example 4: herbicidal effect by soil treatment (Table 19, symbol K); assay type: in vivo, Italian ryegrass (Lolium multiflorum); settings: amount of applied herbicide 320 g/ha
In short: as §3

SMILES	K: Italian ryegrass, herbicidal effect grade
CCOc1ccc2c(-c3c(O)c(C)nn(C)c3=O)c(-c3ccc(F)cc3OCC)sc2c1 [3-095]	2 (Herbicidal rate of 20% or more and less than 40%)
COc1ccccc1-c1sc2cc(OC(C)C)ccc2c1-c1c(O)c(C)nn(C)c1=O [3-101]	5 (Herbicidal rate of 90% or more (almost completely withered))

tested on: velvetleaf; assay: Test Example 4: herbicidal effect by soil treatment (Table 19, symbol M); assay type: in vivo, velvetleaf (Abutilon theophrasti); settings: amount of applied herbicide 320 g/ha
In short: as §3

SMILES	M: velvetleaf, herbicidal effect grade
CCOc1ccc2c(-c3c(O)c(C)nn(C)c3=O)c(-c3ccc(F)cc3OCC)sc2c1 [3-095]	3 (Herbicidal rate of 40% or more and less than 70%)
COc1ccccc1-c1sc2cc(OC(C)C)ccc2c1-c1c(O)c(C)nn(C)c1=O [3-101]	3 (Herbicidal rate of 40% or more and less than 70%)

tested on: lambsquarters; assay: Test Example 4: herbicidal effect by soil treatment (Table 19, symbol O); assay type: in vivo, lambsquarters (Chenopodium album); settings: amount of applied herbicide 320 g/ha
In short: as §3

SMILES	O: lambsquarters, herbicidal effect grade
CCOc1ccc2c(-c3c(O)c(C)nn(C)c3=O)c(-c3ccc(F)cc3OCC)sc2c1 [3-095]	5 (Herbicidal rate of 90% or more (almost completely withered))
COc1ccccc1-c1sc2cc(OC(C)C)ccc2c1-c1c(O)c(C)nn(C)c1=O [3-101]	5 (Herbicidal rate of 90% or more (almost completely withered))

tested on: persian speedwell; assay: Test Example 4: herbicidal effect by soil treatment (Table 19, symbol R); assay type: in vivo, Persian speedwell (Veronica persica); settings: amount of applied herbicide 320 g/ha
In short: as §3

SMILES	R: persian speedwell, herbicidal effect grade
CCOc1ccc2c(-c3c(O)c(C)nn(C)c3=O)c(-c3ccc(F)cc3OCC)sc2c1 [3-095]	5 (Herbicidal rate of 90% or more (almost completely withered))
COc1ccccc1-c1sc2cc(OC(C)C)ccc2c1-c1c(O)c(C)nn(C)c1=O [3-101]	4 (Herbicidal rate of 70% or more and less than 90%)

tested on: barnyard grass; assay: Test Example 5: herbicidal effect by foliage application, plastic box (Table 20, symbol H); assay type: in vivo, barnyard grass (Echinochloa crus-galli); settings: foliage application, 320 g/ha, three weeks after application
In short: (§4)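 Sow seeds spot-wise in sterilized diluvial soil; cover with ~1.5 cm soil. Grow 14 days in greenhouse, 25° C. to 30° C. Spray foliage with emulsion diluted to predetermined amount. Rate effect after 3 weeks.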

SMILES	H: barnyard grass, herbicidal effect grade
CCOc1ccc2c(-c3c(O)c(C)nn(C)c3=O)c(-c3ccc(F)cc3OCC)sc2c1 [3-095]	5 (Herbicidal rate of 90% or more (almost completely withered))
COc1ccccc1-c1sc2cc(OC(C)C)ccc2c1-c1c(O)c(C)nn(C)c1=O [3-101]	5 (Herbicidal rate of 90% or more (almost completely withered))

tested on: wild oat; assay: Test Example 5: herbicidal effect by foliage application, plastic box (Table 20, symbol I); assay type: in vivo, wild oat (Avena fatua); settings: foliage application, 320 g/ha, three weeks after application
In short: as §4

SMILES	I: wild oat, herbicidal effect grade
CCOc1ccc2c(-c3c(O)c(C)nn(C)c3=O)c(-c3ccc(F)cc3OCC)sc2c1 [3-095]	5 (Herbicidal rate of 90% or more (almost completely withered))
COc1ccccc1-c1sc2cc(OC(C)C)ccc2c1-c1c(O)c(C)nn(C)c1=O [3-101]	4 (Herbicidal rate of 70% or more and less than 90%)

tested on: Italian ryegrass; assay: Test Example 5: herbicidal effect by foliage application, plastic box (Table 20, symbol K); assay type: in vivo, Italian ryegrass (Lolium multiflorum); settings: foliage application, 320 g/ha, three weeks after application
In short: as §4

SMILES	K: Italian ryegrass, herbicidal effect grade
CCOc1ccc2c(-c3c(O)c(C)nn(C)c3=O)c(-c3ccc(F)cc3OCC)sc2c1 [3-095]	5 (Herbicidal rate of 90% or more (almost completely withered))
COc1ccccc1-c1sc2cc(OC(C)C)ccc2c1-c1c(O)c(C)nn(C)c1=O [3-101]	5 (Herbicidal rate of 90% or more (almost completely withered))

tested on: windgrass; assay: Test Example 5: herbicidal effect by foliage application, plastic box (Table 20, symbol L); assay type: in vivo, windgrass (Apera spica-venti); settings: foliage application, 320 g/ha, three weeks after application
In short: as §4

SMILES	L: windgrass, herbicidal effect grade
CCOc1ccc2c(-c3c(O)c(C)nn(C)c3=O)c(-c3ccc(F)cc3OCC)sc2c1 [3-095]	5 (Herbicidal rate of 90% or more (almost completely withered))
COc1ccccc1-c1sc2cc(OC(C)C)ccc2c1-c1c(O)c(C)nn(C)c1=O [3-101]	5 (Herbicidal rate of 90% or more (almost completely withered))

tested on: velvetleaf; assay: Test Example 5: herbicidal effect by foliage application, plastic box (Table 20, symbol M); assay type: in vivo, velvetleaf (Abutilon theophrasti); settings: foliage application, 320 g/ha, three weeks after application
In short: as §4

SMILES	M: velvetleaf, herbicidal effect grade
CCOc1ccc2c(-c3c(O)c(C)nn(C)c3=O)c(-c3ccc(F)cc3OCC)sc2c1 [3-095]	5 (Herbicidal rate of 90% or more (almost completely withered))
COc1ccccc1-c1sc2cc(OC(C)C)ccc2c1-c1c(O)c(C)nn(C)c1=O [3-101]	5 (Herbicidal rate of 90% or more (almost completely withered))

tested on: lambsquarters; assay: Test Example 5: herbicidal effect by foliage application, plastic box (Table 20, symbol O); assay type: in vivo, lambsquarters (Chenopodium album); settings: foliage application, 320 g/ha, three weeks after application
In short: as §4

SMILES	O: lambsquarters, herbicidal effect grade
CCOc1ccc2c(-c3c(O)c(C)nn(C)c3=O)c(-c3ccc(F)cc3OCC)sc2c1 [3-095]	5 (Herbicidal rate of 90% or more (almost completely withered))
COc1ccccc1-c1sc2cc(OC(C)C)ccc2c1-c1c(O)c(C)nn(C)c1=O [3-101]	5 (Herbicidal rate of 90% or more (almost completely withered))

tested on: chickweed; assay: Test Example 5: herbicidal effect by foliage application, plastic box (Table 20, symbol P); assay type: in vivo, common chickweed (Stellaria media); settings: foliage application, 320 g/ha, three weeks after application
In short: as §4

SMILES	P: chickweed, herbicidal effect grade
CCOc1ccc2c(-c3c(O)c(C)nn(C)c3=O)c(-c3ccc(F)cc3OCC)sc2c1 [3-095]	5 (Herbicidal rate of 90% or more (almost completely withered))
COc1ccccc1-c1sc2cc(OC(C)C)ccc2c1-c1c(O)c(C)nn(C)c1=O [3-101]	5 (Herbicidal rate of 90% or more (almost completely withered))
